From a melting point compilation (Tetko et al.; mined from patent text by program, amines drawn as free bases though some values may be those of a salt)

| SMILES | melting point |
| --- | --- |
| COC(=O)c1c(C)nc2c(c1N)c1ccccc1n2C | 98 to 100 °C |
| COCOc1ccccc1-c1cc(-c2ccc(C(=O)O)cc2)c(C#N)c(NC(=O)c2cccs2)n1 | 205 to 206 °C |
| Cc1cc(C)c2nc(C)n(Cc3ccc(NCC4CCN(C(C)C)CC4)cc3)c2n1 | 134 to 136 °C |
| O=C1CN(c2ccccc2)C(=O)N1C(=O)c1ccc(-c2ccccc2)cc1 | 196 to 198 °C |
| Cn1cncc1C(=O)NCc1cccc2c1C(=O)N(C1CCC(=O)NC1=O)C2=O (stereo not drawn) | > 260 °C |
| CC1=C(C)C(=O)C(CCCOc2ccc(C=C3SC(=O)NC3=O)cc2)=C(C)C1=O | 230 to 232 °C |
| CC(C(=O)O)c1ccc(O)c(N)c1 (stereo not drawn) | 162 °C |
| COC(=O)c1nc(-c2ccc(Cl)cc2F)nc(N)c1Cl | 194 to 196 °C |
| COc1c(Br)ccc2oc(COc3ccc(-c4ccc(S(=O)(=O)NC(C(=O)O)C(C)C)cc4)cc3)c(C)c12 (stereo not drawn) | 198 to 200 °C |
| CC(C)(C)c1cc(C=C2Sc3ccccc3N(CC(N)=O)C2=O)cc(C(C)(C)C)c1O | 137 to 144 °C |
| COc1cccc(CC(=O)O)c1OCCCc1ccc(OC(C)C)cc1Oc1ncc(Cl)cc1Cl | 92 to 93 °C |
| CON(c1ccc([N+](=O)[O-])cc1Cl)S(=O)(=O)c1cccc([N+](=O)[O-])c1 | 168 to 169 °C |
| COC(=O)C(=C(CBr)CBr)N1CC(N2C(=O)c3ccccc3C2=O)C1=O (stereo not drawn) | 128 to 131 °C |
| CCOC(=O)c1cc(C#N)cc(C(F)(F)F)n1 | 71.5 °C |
| O=C1NCCCN1C1(CO)CCNCC1 | 162 °C |
| Cc1ccc(N2CCC(N)=N2)cc1 | 142 to 143 °C |
| COc1ccc(-c2nc(Sc3ccc(F)cc3F)[nH]c2-c2ccc(OC)cc2)cc1 | 174 to 176 °C |
| Cc1cnc2c(C(=O)NC=NO)c(Cl)ccc2c1 | 235 to 238 °C |
| CCN(c1ccc(C#N)cc1Cl)S(=O)(=O)c1ccc(C)cc1 | 112 to 114 °C |
| Nc1nc2cc(Br)ccn2n1 | 190 to 192 °C |
| C=CCOC(=O)c1ccc(COC(=O)c2ccc(OC(C)C)c(C(C)(C)C)c2)cc1 | 63 to 64 °C |
| COc1ccccc1OCC(O)CN1CCC2(CC1)CNC(=O)O2 (stereo not drawn) | 124 to 125 °C |
| Cc1cc2c(c(C)c1NC(=O)CC(C)(C)C)C(O)C(C)(C)O2 (stereo not drawn) | 217 to 218 °C |
| CCN(CC)CC(=O)N1c2ccccc2NC(=O)c2c1c(C)cn2C | 174 to 175 °C |
| CCCCOC1c2ccccc2C(=O)N(CC2CC2)C1(/C=C/C(N)=O)CNC(=O)OC(C)(C)C (stereo not drawn) | 198 to 199 °C |

| SMILES | melting point |
| --- | --- |
| CCNc1nc(C)c(-c2ccnc(Nc3ccc(N4CCOCC4)c(Cl)c3)n2)s1 | 273 to 274 °C |
| N#CCc1ccccc1Oc1ccc(Br)cc1 | 56 to 58 °C |
| CC(=O)C(=Cc1ccc(C(=O)O)cc1)C(C)=O | 195 to 199 °C |
| O=C(O)COc1cc(F)cc(F)c1C(=O)NCc1ccc(Br)cc1F | 158 to 159 °C |
| CN1CC2CCCC(C1)C2=NO | 111 to 112 °C |
| O=C(O)c1cccc2c1CCc1cccc(O)c1S2 | 171 to 173 °C |
| c1cncc(-c2c[nH]cn2)c1 | 117 to 118 °C |
| CC(=NNc1ccc(C(F)(F)F)cc1)C(=O)O | 190 to 191 °C |
| COc1cc2c(cc1OC)C(=O)C(=NO)C2 | 240 °C |
| Cc1cc(C)n(C)c(=O)n1 | 58 to 60 °C |
| CS(=O)(=O)c1ccc(Oc2cc(OCc3ccccc3)c3[nH]c(C4=NCC(CC(=O)O)S4)cc3c2)cc1 (stereo not drawn) | 218 to 219 °C |
| CCC(C)NC1=NS(=O)(=O)c2cc([N+](=O)[O-])ccc2N1 (stereo not drawn) | 287 to 288 °C |
| COC(=O)c1cc(OC)c(CCNC(C)=O)c(OC)c1 | 233 to 235 °C |
| Cc1ccc(S(=O)(=O)OC[C@H]2COc3ccc4nc(C)ccc4c3O2)cc1 | 115 to 117 °C |
| COC(=O)c1ccc(OC)c(C=C2COc3ccc(OCc4ccccc4)cc3C2=O)c1 | 167 to 169 °C |
| CNc1nc(C=CC(=O)OC)c(-c2ccncc2)s1 | 166 to 167 °C |
| Cc1[nH]c2ccccc2c1C(=O)C(=O)N1CCC(Oc2ccc(F)cc2)CC1 | 213 to 214 °C |
| COc1cnc(OC)n2c(N)nnc12 | 232 to 235 °C |
| Cn1ncc(C(=O)N2CCC2)c1C(=O)Nc1ccn2nc(Br)nc2c1 | > 250 °C |
| CC(C)(C)OC(=O)NC1CCC(=O)NC1=O (stereo not drawn) | 214 to 215 °C |
| Clc1ccc2c(c1)CSc1ccccc1O2 | 66.8 °C |
| CN1CC(=O)Nc2ccc([N+](=O)[O-])cc2C1=O | 250 to 252 °C |
| CCCC(O)P(=O)(O)OCCCN (stereo not drawn) | 188 °C |
| COc1ccc(N2CCN(c3c(C)c(C)c4c(c3C)CC(C)(CN3CCCC3)O4)CC2)cc1 (stereo not drawn) | 129 to 132 °C |
| C[C@@H](NC(=O)c1ccc(-c2ccc(Cl)cc2)cc1)[C@](O)(Cn1cncn1)c1ccc(F)cc1F | 173 to 174 °C |

| SMILES | melting point |
| --- | --- |
| CNc1nc(C)nc(N2CCCc3ccccc32)n1 | 159 to 160 °C |
| CC(=O)N(O)C(C)c1ccccc1Nc1c(Cl)ccc(C)c1Cl (stereo not drawn) | 185 to 187 °C |
| COc1cc(OC)c(-c2cccs2)cc1/C=C/C(=O)c1ccc(S(=O)(=O)Nc2nccs2)cc1 | 220 to 221 °C |
| COc1ccc(Cn2c(C)cc3cnnc(Cl)c32)cc1 | 126 to 128 °C |
| COc1cc2c(cc1S(=O)(=O)c1ccc(C)cc1)[C@@H](N1CCCC1=O)[C@H](O)C(C)(C)O2 (relative stereo) | 263 to 265 °C |
| COc1cccc2c1C=C(C(=O)O)C(CC(F)(F)F)O2 (stereo not drawn) | 204 to 207 °C |
| O=c1oc(-c2ccccc2)cc(O)c1Sc1cccc2ccccc12 | 242 to 243 °C |
| CCOC(=O)C1=C(COCCCCO)NC(C)=C(C(=O)OC)C1c1cccc(Cl)c1Cl (stereo not drawn) | 103 to 104 °C |
| COc1ccc(N2CCN(CCc3ccc4[nH]c(=O)oc4c3)CC2)c2ccccc12 | 200 °C |
| O=[N+]([O-])c1ccc(Oc2ccc(C34CC5CC(C3)CC(c3ccc(Oc6ccc([N+](=O)[O-])c(O)c6)cc3)(C5)C4)cc2)cc1O | 118 to 122 °C |
| O=[N+]([O-])c1ccc(OCCN2CCC(Cc3ccccc3)CC2)cc1O | 136 to 137 °C |
| CNc1ncc2cc(-c3c(Cl)cccc3Cl)c(=O)n(C)c2n1 | 243 to 244 °C |
| CSC(=Nc1ccccc1C(=O)NC(C)C)NC(=O)c1ccccc1 | 117 to 120 °C |
| CNS(=O)(=O)CCc1ccc2[nH]cc(CC(=O)O)c2c1 | 123 to 125 °C |
| CCCCCCCCCc1ccc(C(=O)[C@@H]2CCCC[C@H]2C(=O)O)cc1 (relative stereo) | 84 to 86 °C |
| Cc1cccc(-c2n[nH]cc2-c2ccc(F)c(-c3cnc(C(C)(C)O)s3)c2)n1 | 208 to 210 °C |
| Cc1cc(Oc2ncc(C(F)(F)F)cc2Cl)nn1C(=O)NC1CCCCC1 | 69 to 71 °C |
| O=C1OC(Cl)(c2ccc(Cl)cc2Cl)c2ccccc21 (stereo not drawn) | 148 to 149 °C |
| Nc1c(-c2ccc(Cl)cc2Cl)nnn1Cc1ccc(S(N)(=O)=O)cc1 | 204 to 206 °C |
| COC(=O)c1ccc(Cn2c(=O)c(C)c3sc(C(=O)NCc4ccc(F)cc4)cn3c2=O)cc1OC | 191 to 193 °C |
| Cc1cccc(CC(=O)c2ccnc(-c3ccc(OCC(N)=O)cc3)c2)n1 | 168 °C |
| CN1CCN(C2=Nc3ccccc3-n3ccc4cc(Cl)cc2c43)CC1 | 170 to 172 °C |
| CN1C(=O)C2=C(c3ccc([N+](=O)[O-])cc3)OC(=O)C2=C1c1ccccc1 | 253 to 255 °C |
| CCCCCCCCCCCCCCCCSCC(C)(C)CO | 25 to 28 °C |
| Nc1nc(C#Cc2ccccc2)cc(-c2ccccc2)n1 | 136 to 138 °C |

| SMILES | melting point |
| --- | --- |
| c1ccc(COc2ccc(OCCN3CCN(c4ccccc4)CC3)cc2)cc1 | 116 to 119 °C |
| FC(F)(F)c1csc(I)n1 | 35.5 to 36 °C |
| COC(=O)C1=C(C)NC(C)=C(C(=O)OC)C1c1cc(Br)ccc1OCC(=O)NCCO[N+](=O)[O-] | 166 to 167 °C |
| O=c1c2c(Cc3cccc(OC(F)(F)F)c3)n[nH]c2c2cccnc2n1-c1cccc(C(F)(F)F)c1 | 129 to 132 °C |
| N#CC1(c2ccc(F)cc2)CCC(N2CCC3(CC2)C(=O)NCN3c2ccccc2)CC1 (stereo not drawn) | 236 °C |
| O=C(CNC(=O)c1ccc(F)cc1)c1ccsc1 | 140 to 141 °C |
| CN(Cc1ccc(CCn2cnc3cc(-c4ccc(Cl)cc4)sc3c2=O)cc1)C(=O)CCl | 162 to 165 °C |
| CC(C)(Oc1ccc(OC(CCC(F)(F)F)c2cccc3c2cnn3-c2ccc(C(F)(F)F)cc2)cc1)C(=O)O (racemic) | 175 to 180 °C |
| COC(=O)COc1ccc(-c2c3ccccc3cc3sc4cc(OCC(=O)OC)ccc4c23)cc1 | 152 to 154 °C |
| CC(C)CC1(SCCCN=[N+]=[N-])c2c([nH]c(=O)n(C)c2=O)SC1Cc1cccc2ccccc12 (stereo not drawn) | 94 to 96 °C |
| COc1ccc(C2CCN(C)CC2)cc1Nc1ncc2ccc(-c3ccccc3N(C)S(C)(=O)=O)n2n1 | 93 to 99 °C |
| CCCc1cccc2nc3c(=O)[nH][nH]c(=O)c3c(O)c12 | > 400 °C |
| NC(=O)N1C(=O)C(C(=O)c2ccoc2)c2ncc(Cl)cc21 (stereo not drawn) | > 250 °C |
| CC(=O)OC1CCC2(C)C3CCC4(C)C(C(C)CCCC(C)(C)O)CCC4C3CCC2(O)C1 (stereo not drawn) | 180 to 182 °C |
| Cc1ccc(-c2nccc(-c3cccc(C(=O)O)c3)n2)cc1 | 225 to 226 °C |
| COc1cccc(-c2c(NC(=O)Nc3c(C(C)C)cccc3C(C)C)c(=O)n(CCOc3ccccc3)c3ncccc23)c1 | 168 to 170 °C |
| C=CCNc1nc(N)nc2c1ncn2C1C=CC(CO)C1 (stereo not drawn) | 181 to 183 °C |
| CCCCCCCCCCCCc1cc(NC(=O)Nc2c(C(C)C)cccc2C(C)C)no1 | 101 to 107 °C |
| CC(C)(C)c1cc(SC(Sc2cc(C(C)(C)C)c(O)c(C(C)(C)C)c2)c2cc(C(C)(C)C)c(O)c(C(C)(C)C)c2)cc(C(C)(C)C)c1O | 175 to 177 °C |
| CCCCCCCC(=O)c1ccc(CCC(CC)(CCOC(C)=O)NC(C)=O)cc1 (stereo not drawn) | 66 to 69 °C |
| O=C(O)CCCCC[C@H]1CC[C@@H](O)CC1 | 83 to 85 °C |
| CCOC(=O)c1cc2ccc3c(c2cc1OCC)OC(n1cccc1)=C(C#N)C3c1cccc([N+](=O)[O-])c1 (stereo not drawn) | 202 to 203 °C |
| CON=C(C(=O)OC)c1ccccc1COc1ccc2c(c1)OCC2=O | 134 to 137 °C |
